Measured values: patent US11214803B2, “Modulators of YAP1 expression” (Ionis Pharmaceuticals, Inc., priority 2019, dated 2022)
Marks after values point to notes of the source that are not given here. Strand notation (5' to 3'): a small letter for the sugar, then the base; units joined by * are phosphorothioate-linked, units joined directly phosphodiester-linked; [ ] holds rarer units or linkages, { } end groups; capitals alone tell only the bases. k = constrained ethyl (cEt); [5mC] = 5-methylcytosine; d = 2'-deoxy (DNA)

Assays:
[1] = tested on: Yap1 mRNA; assay: Yap1 mRNA in BICR-22 cells, RNA analysis (Example 35); assay type: cell-based, human; conditions: free uptake, approximately 48 hours
Protocol: Modified oligonucleotides described in the studies above were tested at various doses in tongue squamous carcinoma (lymph node metastasis) cell line BICR-22. A control oligonucleotide 792169, described herein above, was also tested.
(§1) Cultured BICR-22 cells at a density of 5000 cells per well were treated using free uptake with modified oligonucleotides diluted to concentrations described in the tables below. After approximately 48 hours, Yap1 mRNA levels were measured as previously described using the Human Yap1 primer-probe set RTS4814. Yap1 mRNA levels were normalized to actin-beta content, as measured by primer probe set RTS5002. Results are presented in the tables below as percent control of the amount of Yap1 mRNA relative to untreated control cells (% UTC).

[2] = tested on: BICR56 cells; assay: Cell proliferation assay in BICR56 cells, CellTiter-Glo (Example 33); assay type: cell-based, human; conditions: free uptake, approximately 144 hours
Protocol: Modified oligonucleotides described in the studies above were tested at various doses in squamous cell carcinoma adherent keratinocyte cell line BICR56. A control oligonucleotide 792169 was also tested.
(§2) Cultured BICR56 cells at a density of 1000 cells/well were treated using free uptake with modified oligonucleotides diluted to concentrations described in the tables below. After approximately 144 hours, cell proliferation was measured using the luminescent cell viability CellTiter-Glo® 2.0 Assay (Promega). Results are presented in the tables below as percent control of the amount of luminescence in samples treated with modified oligonucleotides relative to untreated control cells (% UTC).

[3] = tested on: Yap1 mRNA; assay: Yap1 mRNA in UPCI:SCC090 cells, RNA analysis (Example 47); assay type: cell-based, human; conditions: free uptake, approximately 48 hours
Protocol: Modified oligonucleotides described in the studies above were tested at various doses in tongue squamous cell carcinoma cell line UPCI:SCC090. A control oligonucleotide 792169, described herein above, was also tested.
as §1, with “UPCI:SCC090” for “BICR-22”

[4] = tested on: SNU-1214 cells; assay: Cell proliferation assay in SNU-1214 cells, CellTiter-Glo (Example 46); assay type: cell-based, human; conditions: free uptake, approximately 144 hours
Protocol: Modified oligonucleotides described in the studies above were tested at various doses in laryngeal squamous cell carcinoma cell line […]. A control oligonucleotide 792169, described herein above, was also tested.
as §2, with “SNU-1214” for “BICR56”

[5] = tested on: SNU-899 cells; assay: Cell proliferation assay in SNU-899 cells, CellTiter-Glo (Example 43); assay type: cell-based, human; conditions: free uptake, approximately 144 hours
Protocol: Modified oligonucleotides described in the studies above were tested at various doses in laryngeal squamous cell carcinoma cell line SNU-899. A control oligonucleotide 792169, described herein above, was also tested.
as §2, with “SNU-899” for “BICR56”

[6] = Tolerability in CD-1 mice, plasma chemistry markers (Example 18); assay type: in vivo; conditions: male CD-1 mice, 50 mg/kg s.c. twice a week (total of 9 treatments), day 34
Protocol: CD-1 mice were treated with modified oligonucleotides selected from studies described above and evaluated for changes in the levels of various plasma chemistry markers.
Groups of four male CD-1 mice at 5-6 weeks of age (obtained from Charles River) were injected subcutaneously twice a week for four weeks (for a total of 9 treatments) with 50 mg/kg of modified oligonucleotides. One group of male CD-1 mice was injected with PBS. Mice were euthanized on day 34 post start of treatment (24 hours following the final administration).

[7] = Tolerability in Sprague-Dawley rats, plasma chemistry markers (Example 20); assay type: in vivo; conditions: male Sprague-Dawley rats, 50 mg/kg s.c. weekly for 6 weeks (7 doses), 48 hours after last dose
Protocol: Sprague-Dawley rats are a multipurpose model used for safety and efficacy evaluations. The rats were treated with Ionis modified oligonucleotides from the studies described in the Examples above and evaluated for changes in the levels of various plasma chemistry markers.

[8] = rat, in vivo, sc, 50 mg/kg
Protocol: Male Sprague-Dawley rats were maintained on a 12-hour light/dark cycle and fed ad libitum with Purina normal rat chow. Groups of 4 Sprague-Dawley rats each were weekly injected subcutaneously with 50 mg/kg of Ionis oligonucleotide for 6 weeks (total 7 doses). Forty-eight hours after the last dose, the rats were euthanized; and organs, urine and plasma were harvested for further analysis.
To evaluate the effect of Ionis oligonucleotides on kidney function, urinary levels of total protein and creatinine were measured using an automated clinical chemistry analyzer (Hitachi Olympus AU400c, Melville, N.Y.).

[9] = tested on: Yap1 mRNA; assay: Yap1 mRNA levels in CAL33 xenograft tumors (Example 29); assay type: in vivo, human; conditions: CAL33 xenografts, 50 mg/kg twice weekly for two weeks, relative to PBS treated animals
Protocol: A xenograft tumor model was used to evaluate activity of modified oligonucleotides targeted to human Yap1. One million CAL33 cells in 30% matrigel were implanted subcutaneously into the flanks of female CrTac:NCr-Foxnlnu (Taconic) mice. When tumors reached an average volume of 100 mm^3, approximately two weeks post-implantation, groups of eight mice were administered at 50 mg/kg twice weekly with modified oligonucleotides for two weeks. ION 792169 was administered as a control.
Tumor samples were collected for measurement of Yap1 mRNA levels by RT-qPCR. Yap1 mRNA levels were measured as previously described using the Human Yap1 primer-probe set RTS4814. Yap1 mRNA levels were normalized to actin-beta content, as measured by primer probe set RTS5002. Results are presented in the tables below as percent control of the amount of Yap1 mRNA relative to PBS treated animals (% control).

Substance	human Yap1 mRNA expression ([1]; 0.04 μM) [% UTC]	human Yap1 mRNA expression ([1]; 0.2 μM) [% UTC]	human Yap1 mRNA expression ([1]; 1 μM) [% UTC]	human Yap1 mRNA expression ([1]; 5 μM) [% UTC]	Antiproliferative effect (cell proliferation, luminescence) ([2]; 0.04 μM) [% UTC]	Antiproliferative effect (cell proliferation, luminescence) ([2]; 0.2 μM) [% UTC]	Antiproliferative effect (cell proliferation, luminescence) ([2]; 1 μM) [% UTC]	Antiproliferative effect (cell proliferation, luminescence) ([2]; 5 μM) [% UTC]	human Yap1 mRNA expression ([3]; 0.04 μM) [% UTC]	human Yap1 mRNA expression ([3]; 0.2 μM) [% UTC]	human Yap1 mRNA expression ([3]; 1 μM) [% UTC]	human Yap1 mRNA expression ([3]; 5 μM) [% UTC]	Antiproliferative effect (cell proliferation, luminescence) ([4]; 0.04 μM) [% UTC]	Antiproliferative effect (cell proliferation, luminescence) ([4]; 0.2 μM) [% UTC]	Antiproliferative effect (cell proliferation, luminescence) ([4]; 1 μM) [% UTC]	Antiproliferative effect (cell proliferation, luminescence) ([4]; 5 μM) [% UTC]	Antiproliferative effect (cell proliferation, luminescence) ([5]; 0.04 μM) [% UTC]	Antiproliferative effect (cell proliferation, luminescence) ([5]; 0.2 μM) [% UTC]	Antiproliferative effect (cell proliferation, luminescence) ([5]; 1 μM) [% UTC]	Antiproliferative effect (cell proliferation, luminescence) ([5]; 5 μM) [% UTC]	other results
715487 (kA*kT*kT*dA*d[5mC]*dT*dT*d[5mC]*dA*dT*dA*dG*d[5mC]*kT*kT*kA) [compound 715487]	82	45	23	13	70	26	9	4	70	37	26	14	93	69	52	38	82	78	71	62	
1076453 (GTAATATTGCAATCTG; 3-10-3 cEt gapmer, further chemistry not given here) [compound 1076453]																					ALT [6]: 56 U/L; AST [6]: 113 U/L; BUN [6]: 20 mg/dL; TBIL [6]: 0.24 mg/dL; ALB [7]: 3.14 g/dL; ALT [7]: 47 U/L; AST [7]: 77 U/L; BUN [7]: 23 mg/dL; TBIL [7]: 0.13 mg/dL
1198440 (AAGTGTATGTCAGAAG; cEt, 2'-MOE, 5-methylcytosine, phosphorothioate modifications, further chemistry not given here) [compound 1198440]	44	14	4	4	28	10	6	4	60	26	10	5	84	72	53	49	82	75	69	66	URINE P/C ratio (total protein to creatinine ratio) [8]: 9; Yap1 mRNA levels in tumors, % control [9]: 12 % control
CGCCGATAAGGTACAC (cEt gapmer, phosphorothioate backbone, further chemistry not given here) [ION 792169, reference compound]	99	98	98	98	106	100	92	87	100	108	112	84	105	90	96	72	90	94	96	86	Yap1 mRNA levels in tumors, % control [9]: 74 % control
1198439 (AGTGTATGTCAGAAGA; sugar, 5-methylcytosine, phosphorothioate modifications, further chemistry not given here) [compound 1198439]																					URINE P/C ratio (total protein to creatinine ratio) [8]: 8*
958499 (ATTAGAGTATGTGGCA; 3-10-3 cEt gapmer, further chemistry not given here) [compound 958499]																					ALT [6]: 79 U/L; AST [6]: 88 U/L; BUN [6]: 24 mg/dL; TBIL [6]: 0.18 mg/dL; ALB [7]: 2.78 g/dL; ALT [7]: 61 U/L; AST [7]: 109 U/L; BUN [7]: 24 mg/dL; TBIL [7]: 0.18 mg/dL
1198728 (TATTAGAGTATGTGGC; modified gapmer, further chemistry not given here) [compound 1198728]																					Yap1 mRNA levels in tumors, % control [9]: 40 % control
